Data reported in publication PMC8430952 (International Journal of Molecular Sciences, 2021).
Substitutions are numbered along the chain they refer to. No end group written: not given here.

B1: ATAD2 bromodomain (protein)
chain: RLEEQEEDTFRELRIFLRNVTHRLAIDKRFRVFTKPVDPDEVPDYVTVIKQPMDLSSVISKIDLHKYLTVKDYLRDIDLICSNALEYNPDRDPGDRLIRHRACALRDTAYAIIKEELDE

Assays:
[1] = target: T1, ATAD2 bromodomain (BRD), residues 981–1108 (Homo sapiens, UniProt Q6PL18); assay: ITC of histone peptides with the wild-type ATAD2 bromodomain; assay type: binding; conditions: for N-Value (stoichiometry of binding, peptide-to-bromodomain ratio) / ATAD2 BRD KD: ITC, 5 °C; for N-Value (stoichiometry of binding, peptide-to-bromodomain ratio): ATAD2 BRD (residues 981–1108, wild type), one set of sites model; for Kd: SD; for ATAD2 BRD KD: 150 mM NaH2PO4 and 150 mM NaCl, 5 mM peptide titrated into 0.2 mM ATAD2 BRD (residues 981–1108, wild type), 1:1 binding model, mean ± SD of three runs, no binding repeated in duplicate
T1 construct: Residues 981–1108 encoding the 128 amino acid ATAD2 BRD were PCR amplified; GST (with PreScission Protease site) (N, cleaved yes); made in house; host or cells: E. coli Rosetta 2(DE3) pLysS (non-codon-optimized) or BL21(DE3) pLysS (codon-optimized)
T1 sequence (Q6PL18 981-1108): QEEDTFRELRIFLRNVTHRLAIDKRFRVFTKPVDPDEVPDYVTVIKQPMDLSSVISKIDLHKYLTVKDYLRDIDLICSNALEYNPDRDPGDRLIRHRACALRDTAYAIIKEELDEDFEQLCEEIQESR
Protocol: (§1) Purified protein was concentrated to a volume of 3 mL and dialyzed into ITC buffer (150 mM NaH2PO4 and 150 mM NaCl) for 48 h. ITC experiments with histone peptides were carried out at 5 °C using a MicroCal iTC200 (Malvern Panalytical, Westborough, MA, USA). […] The stirring speed was set at 750 RPM. After excluding the first injection, the ITC binding isotherms were integrated using a Marquandt nonlinear least-squares analysis according to a 1:1 binding model assuming a single set of identical binding sites with the Origin 7.0 program (OrginLab Corporation, Northampton, MA, USA). The raw data were corrected for non-specific heats of dilution determined by the magnitude of the peaks appearing after the system reaches complete saturation. The obtained heats of dilution were analyzed according to a one set of sites binding model and used to calculate binding affinities, N values, and thermodynamic values. […] The mean Kd was calculated from the average of the three runs, and the standard deviation was calculated from the mean.

ATAD2 BRD mutant N1064A = target: T2, ATAD2 BRD mutant N1064A (Homo sapiens, UniProt Q6PL18, N1064A); assay: ITC of histone peptides with the ATAD2 bromodomain mutant N1064A; assay type: binding; conditions: ATAD2 (residues 981–1108) N1064A mutant bromodomain
T2 construct: ATAD2 (residues 981–1108) with a N1064A/I1074A/I1074Y mutation; GST (with PreScission Protease site) (N, cleaved yes); made in house; host or cells: E. coli
T2 sequence (Q6PL18 981-1108 N1064A): T1 sequence (Q6PL18 981-1108) with N84A
Protocol: as §1

ATAD2 BRD mutant I1074Y = target: T3, ATAD2 BRD mutant I1074Y (Homo sapiens, UniProt Q6PL18, I1074Y); assay: ITC of histone peptides with the ATAD2 bromodomain mutant I1074Y; assay type: binding; conditions: ATAD2 (residues 981–1108) I1074Y mutant bromodomain
T3 construct: ATAD2 (residues 981–1108) with a N1064A/I1074A/I1074Y mutation; GST (with PreScission Protease site) (N, cleaved yes); made in house; host or cells: E. coli
T3 sequence (Q6PL18 981-1108 I1074Y): T1 sequence (Q6PL18 981-1108) with I94Y
Protocol: as §1

ATAD2 BRD mutant I1074A = target: T4, ATAD2 BRD mutant I1074A (Homo sapiens, UniProt Q6PL18, I1074A); assay: ITC of histone peptides with the ATAD2 bromodomain mutant I1074A; assay type: binding; conditions: ATAD2 (residues 981–1108) I1074A mutant bromodomain
T4 construct: ATAD2 (residues 981–1108) with a N1064A/I1074A/I1074Y mutation; GST (with PreScission Protease site) (N, cleaved yes); made in house; host or cells: E. coli
T4 sequence (Q6PL18 981-1108 I1074A): T1 sequence (Q6PL18 981-1108) with I94A
Protocol: as §1

[2] = target: histone H4K8ac (Homo sapiens) (UniProt P62805); assay: ITC; conditions: cited from earlier work
[3] = target: histone H4K5ac (Homo sapiens) (UniProt P62805); assay: ITC; conditions: cited from earlier work
[4] = target: T5, ATAD2 bromodomain (residues 966–1112, C1101A) (Homo sapiens, UniProt Q6PL18, C1101A); assay: ITC of histone H4 peptides with the longer ATAD2 bromodomain construct; assay type: binding; conditions: for N-Value (stoichiometry of binding): ITC, 5 °C, ATAD2 bromodomain residues 966–1112, C1101A; for Kd: SD, read-out: KD from ITC
T5 construct: GST (with PreScission protease cleavage site) (N, cleaved yes); made in house; host or cells: E. coli BL21(DE3) pLysS
T5 sequence (Q6PL18 966-1112 C1101A): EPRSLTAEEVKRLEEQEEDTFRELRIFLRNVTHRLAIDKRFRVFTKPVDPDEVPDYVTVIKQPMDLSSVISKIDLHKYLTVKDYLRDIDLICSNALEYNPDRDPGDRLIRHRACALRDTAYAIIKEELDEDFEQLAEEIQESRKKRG
Protocol: as §1

histone H4K12ac 4-17 = target: T6, histone H4K12ac 4-17 (Homo sapiens, UniProt P62805); assay: ITC
T6 chain: RGKGGKGLGK(Ac)GGAK

histone H4K5acK8ac 1-10 = target: T7, histone H4K5acK8ac 1-10 (Homo sapiens, UniProt P62805); assay: ITC
T7 chain: MSGRGK(Ac)GGK(Ac)G

| Molecule | N-Value (stoichiometry of binding, peptide-to-bromodomain ratio) [1] | Kd [1] | ATAD2 BRD KD [1] | other results |
| --- | --- | --- | --- | --- |
| CC(=O)NCCCC[C@H](NC(=O)CNC(=O)CN)C(=O)NCC(=O)N[C@@H](CC(C)C)C(=O)NCC(=O)N[C@@H](CCCCNC(C)=O)C(=O)NCC(=O)NCC(=O)N[C@@H](C)C(N)=O [H4K8acK12ac (res 6–15)] | 1.169 | 392 ± 19.5 µM | – | – |
| CC(=O)NCCCC[C@H](NC(=O)CNC(=O)[C@H](CC(C)C)NC(=O)CNC(=O)[C@H](CCCCN)NC(=O)CNC(=O)CNC(=O)[C@H](CCCCN)NC(=O)CN)C(=O)NCC(=O)NCC(=O)N[C@@H](C)C(=O)N[C@@H](CCCCN)C(=O)N[C@@H](CCCNC(=N)N)C(N)=O [H4K12ac (res 4–17)] | 1.170 | 95.1 ± 13.1 µM | – | KD (ATAD2 BRD mutant N1064A): No binding; KD (ATAD2 BRD mutant I1074Y): No binding; KD (ATAD2 BRD mutant I1074A): No binding |
| ARTKQTARKSTG [H3 unmodified (res 1–12), unmodified histone H3 tail peptide, residues 1–12] | – | – | No Binding | – |
| ARTKQTARKacSTG [H3K9ac (res 1–12), histone H3 tail peptide, residues 1–12, acetylated at K9] | – | – | No Binding | – |
| ATAD2 bromodomain (from UniProt Q6PL18) | – | – | – | Kd [2]: 1130 µM; Kd [3]: 44.5 µM |
| GKGGKGLGKGGAKR [H4 unmodified (res 4–17), unmodified histone H4 tail peptide, residues 4–17; free N-terminus, amidated C-terminus] | – | – | No Binding | – |
| GKGGKacGLGKGGAKR [H4K8ac (res 4–17), histone H4 tail peptide, residues 4–17, acetylated at K8] | – | – | No Binding | ATAD2 BRD KD ([1]; listed as H5K8ac (4–17)): complete lack of binding |
| GKacGGKGLGKGGAKR [H4K5ac (res 4–17), histone H4 tail peptide, residues 4–17, acetylated at K5] | – | – | No Binding | ATAD2 BRD KD ([1]; listed as H4K5ac (4–17)): complete lack of binding |
| LGK(Ac)GGAK(Ac)RHRK-NH2 [H4K12acK16ac (res 10–20)] | 1.082 | 303 ± 18.7 µM | – | – |
| LGKGGAKacRHRK [H4K16ac (res 10–20), histone H4 tail peptide, residues 10–20, acetylated at K16] | – | – | No Binding | – |
| RKSTGGKAPRKacQ [H3K18ac (res 8–19), histone H3 tail peptide, residues 8–19, acetylated at K18] | – | – | No Binding | – |
| RKSTGGKacAPRKQ [H3K14ac (res 8–19), histone H3 tail peptide, residues 8–19, acetylated at K14] | – | – | No Binding | ATAD2 BRD KD ([1]; listed as H3K14ac): did not observe any binding |
| SGRGK(Ac)GGK(Ac)GL-NH2 [H4K5acK8ac (res 1–10)] | 0.938 | 33.2 ± 5.9 µM | – | KD (ATAD2 BRD mutant N1064A): No binding; KD (ATAD2 BRD mutant I1074Y): No binding; N-Value (stoichiometry of binding) [4]: 0.974; Kd [4]: 15.9 ± 2.5 µM; KD (ATAD2 BRD mutant I1074A): No binding |
| SGRGK(Ac)GGKGL-NH2 [H4K5ac (res 1–10)] | 1.070 | 44.5 ± 3.3 µM | – | N-Value (stoichiometry of binding) [4]: 1.021; Kd [4]: 10.1 ± 1.3 µM |
| SGRGK(Ac)QGGKARA-NH2 [H2AK5ac (res 1–12)] | 0.997 | 38.9 ± 5.9 µM | – | – |
| SGRGKGGK(Ac)GL-NH2 [H4K8ac (res 1–10)] | 1.144 | 1130 ± 122 µM | – | – |
| B1 | – | – | – | Kd (histone H4K12ac 4-17): 95.1 µM; Kd (histone H4K5acK8ac 1-10): 33.2 µM |
